Reference: patent US8642764B1, “Julolidine conjugates and methods for their preparation and use” (Jawaharlal Nehru Centre for Advanced Scientific Research, priority 2012, dated 2014)
Values belong to the compound of their own block, whether it stands above or below them.

Columns and labels:
[1] = UV/Vis absorption spectra upon addition of metal ions; assay type: physicochemical; conditions: Cu^2+ 50.0 equiv; HEPES/CH3CN pH 7.2
Procedure: The photophysical properties of bi-julolidine compounds were investigated by monitoring the absorption spectral behavior upon addition of several metal ions such as Li^+, Na^+, Ba^2+, Sr^2+, Mg^2+, Al^3+, Ca^2+, Mn^2+, Fe^2+, Co^2+, Ni^2+, Zn^2+, Ag^+, Cd^2+, Hg^2+, Pb^2+ and Cu^2+ in an aqueous buffer medium (50 mM, 2-(4-(2-hydroxyethyl)-1-piperazin-yl)ethanesulfonic acid (HEPES)/CH3CN, 6:4, v/v; pH 7.2). […] With the addition of 50.0 equivalents of Co^2+, Ni^2+and Zn^2+, the absorbance intensity decreased and slightly red shifted to different extents (Ni^2+=408.5 nm; Zn^2+=410 nm; Co^2+=409 nm).
Representative examples are shown in FIG. 1 and FIG. 2 using compound 1 and 2, respectively.

[2] = Specificity of Schiff-base compounds towards Cu^2+ ions (absorption spectra); assay type: physicochemical; conditions: for absorption band: absence of Cu^2+ ions; for characteristic absorbance in the NIR region / characteristic absorbance in the visible region: presence of Cu^2+ ions
Procedure: The specificity of bi-julolidine Schiff-base compounds, compound 1 and compound 2, in detecting Cu^2+ ions were investigated by monitoring the absorption spectral behavior of the compounds. The experiment was also performed using other Schiff-base compounds that were prepared by condensing different salicylaldehyde derivatives with carbohydrazide and thiocarbohydrazide (compounds 3-8, shown below).

[3] = UV/Vis absorption and colorimetric titration with increasing concentrations of Cu^2+; assay type: physicochemical; conditions: for extinction coefficient (ε) in the NIR region at maximum: at the Cu^2+ equivalents giving maximum NIR absorbance; for extinction coefficient (ε) at 570 nm at maximum: at the Cu^2+ equivalents giving maximum absorbance at 570 nm; for NIR λmax at maximum absorbance / final solution color: end of the Cu^2+ titration; for visual color change of solution: increasing concentration of Cu^2+ ions; for NIR band λmax / new absorption band in the visible region (λmax): on first appearance in the Cu^2+ titration (1.0 to 2.0 equivalents); for Cu^2+ added at which absorbance at 570 nm reached a maximum / Cu^2+ added at which absorbance in the NIR region reached a maximum: sequential titration, pH 7.2
Procedure: The spectral and colorimetric properties of bi-julolidine compounds were investigated by monitoring the absorption spectral behavior upon addition of increasing concentrations of Cu^2+ in an aqueous buffer medium (50 mM, 2-(4-(2-hydroxyethyl)-1-piperazin-yl)ethanesulfonic acid (HEPES)/CH3CN, 6:4, v/v; pH 7.2). During sequential titration, the absorption spectra of julolidine-carbonohydrazone compound in the visible region gradually shifted from 380 nm to 412 nm with the addition of 1.5 equivalents of Cu^2+ and the colorless solution turned to light green. Increasing the concentration of Cu^2+ in the solution of julolidine-carbonohydrazone compound from 1.5 to 2.0 equivalents led to a change in the solution color from light green to light purple. A new absorption band (λmax=570 nm) appeared in the visible region accompanied by a distinguishable NIR band with λmax centered at 930 nm. The absorbance at 570 nm reached a maximum upon addition of 6.0 equivalents of Cu^2+ with an extinction coefficient (ε) of 2×10^4 M^−1cm^−1 and then decreased with further addition of Cu^2+. The absorbance in the NIR region reached a maximum (ε=5.2×10^4 M^−1cm^−1) upon addition of a total of 8.0 equivalents of Cu^2+ with a gradual shift of λmax from 930 nm to 825 nm, and that remained unchanged upon further addition of Cu^2+. The final solution color of julolidine-carbonohydrazone compound was aqua colored.
During sequential titration of Cu^2+ with julolidine-thiocarbonohydrazone compound, two absorption bands appeared at 570 nm and 980 nm, after addition of 1.0 equivalent of Cu^2+. At that concentration of Cu^2+ ions, the color of the solution of julolidine-thiocarbonohydrazone compound changed from greenish to light purple. The absorbance at 570 nm and 980 nm were enhanced when Cu^2+ concentrations increased from 1.5 to 2.0 equivalents and the purple-colored solution turned to light violet. The absorbance at 570 nm reached a maximum at 5.0 equivalents of Cu^2+ with an extinction coefficient (ε) of 2×10^4 M^−1 cm^−1 and a consequent increase in the intensity of the NIR absorption band was observed. At that concentration of Cu^2+ ions, The solution color of julolidine-thiocarbonohydrazone compound changed from light violet to blue. […] The final solution color of julolidine-thiocarbonohydrazone compound was greenish aqua.

[4] = Fluorometric detection of copper ions; assay type: physicochemical; conditions: for fluorescence emission: excitation at 430 nm, no metal ion
Procedure: The fluorometric behavior of julolidine-thiocarbonohydrazone compound was studied upon addition of 20.0 equivalents of Li^+, Na^+, Ba^2+, Sr^2+, Mg^2+, […], Ca^2+, Mn^2+, Fe^2+, CO^2+, Ni^2+, Zn^2+, Ag^+, Cd^2+, Hg^2+, Pb^2+ and Cu^2+ in an aqueous buffer medium (50 mM, 2-(4-(2-hydroxyethyl)-1-piperazin-yl)ethanesulfonic acid (HEPES)/CH3CN, 6:4, v/v; pH 7.2). […] The quenched fluorescence of julolidine-thiocarbonohydrazone compound was restored upon treating the julolidine-thiocarbonohydrazone compound —Cu^2+ complex with ethylenediaminetetraacetic acid (EDTA). Fluorescence emission of compound 2 with sequential addition of increasing concentrations (0 to 50 μM) of Cu^2+ is shown in FIG. 5B.

HEK 293T cells = experiment: Detection of Cu^2+ ions in cells using fluorescence microscopy; assay type: cell-based
Procedure: HEK 293T cells were grown to 50% confluency in a 30 mm dish containing Dulbecco's modified eagle medium (DMEM) and 10% fetal bovine serum (FBS) at 37° C. and 5% CO2. The cells were washed three times with phosphate-buffered saline (PBS) and stained with julolidine-thiocarbonohydrazone compound (10 μM final concentration) in the growth media without FBS for 10 minutes. The adherent cells were washed three times with PBS to remove excess compound. […] Further, the excess of Cu—(ClO4)2.6H2O was washed off with PBS and then supplemented with EDTA (10 μM) in DMEM without FBS for 10 minutes.

absorption band [2]: around 380 nm
Compound: O=C(N/N=C/c1cc2c3c(c1O)CCCN3CCC2)N/N=C/c1cc2c3c(c1O)CCCN3CCC2 [compound 1, julolidine-carbonohydrazone]
characteristic absorbance in the NIR region [1]: 823 nm | characteristic absorbance in the visible region [1]: 495 nm | characteristic absorbance in the NIR region [2]: 825 nm | characteristic absorbance in the visible region [2]: 495 nm | absorption in the visible region, shifted from 380 nm ([3]; addition of 1.5 equivalents of Cu^2+): 412 nm | extinction coefficient (ε) in the NIR region at maximum [3]: 52000 M⁻¹ cm⁻¹ | extinction coefficient (ε) at 570 nm at maximum [3]: 20000 M⁻¹ cm⁻¹ | NIR λmax at maximum absorbance [3]: 825 nm | final solution color [3]: aqua colored | visual color change of solution [3]: light green, then to light purple, and then to aqua color | NIR band λmax [3]: 930 nm | new absorption band in the visible region (λmax) [3]: 570 nm | Cu^2+ added at which absorbance at 570 nm reached a maximum [3]: 6.0 equivalents | Cu^2+ added at which absorbance in the NIR region reached a maximum [3]: 8.0 equivalents

absorption band [2]: around 380 nm | fluorescence emission [4]: about 535 nm | fluorescence emission ([4]; listed as Julolidine-thiocarbonohydrazone compound): around 535 nm | cell permeability (HEK 293T cells; HEK 293T living cells): cell-permeable
Compound: Oc1c(/C=N/NC(=S)N/N=C/c2cc3c4c(c2O)CCCN4CCC3)cc2c3c1CCCN3CCC2 [compound 2, julolidine-thiocarbonohydrazone]
characteristic absorbance in the NIR region [1]: around 820 nm | characteristic absorbance in the visible region [1]: 570 nm | characteristic absorbance in the NIR region [2]: 825 nm | characteristic absorbance in the visible region [2]: 570 nm | extinction coefficient (ε) in the NIR region at maximum [3]: 52000 M⁻¹ cm⁻¹ | extinction coefficient (ε) at 570 nm at maximum [3]: 20000 M⁻¹ cm⁻¹ | NIR λmax at maximum absorbance [3]: 820 nm | final solution color [3]: greenish aqua | visual color change of solution [3]: from light green to light violet, then to light blue and then to greenish aqua | NIR band λmax [3]: 980 nm | new absorption band in the visible region (λmax) [3]: 570 nm | Cu^2+ added at which absorbance at 570 nm reached a maximum [3]: 5.0 equivalents | Cu^2+ added at which absorbance in the NIR region reached a maximum [3]: 15.0 equivalents | fluorescence emission in the presence of other metal ions ([4]; 20.0 equivalents of Li+, Na+, Ba2+, Sr2+, Mg2+, Ca2+, Mn2+, Fe2+, Co2+, Ni2+, Zn2+, Ag+, Cd2+, Hg2+, Pb2+): no significant changes | fluorescence intensity around 535 nm in the presence of Cu^2+ ([4]; 430 nm excitation, 20.0 equivalents of Cu^2+): quenched | quenched fluorescence after treating the Cu^2+ complex with EDTA ([4]; EDTA): restored | fluorescence in cells after staining (HEK 293T cells; 10 μM, 10 minutes, HEK 293T): presence of fluorescent julolidine-thiocarbonohydrazone compound in cells | intracellular fluorescence after Cu^2+ supplementation (HEK 293T cells; Cu(ClO4)2.6H2O 10 μM, 10 minutes): complete suppression of intracellular fluorescence | intracellular fluorescence after EDTA (HEK 293T cells; EDTA 10 μM, 10 minutes, after Cu^2+ was washed off): recovery of intracellular fluorescence
